Laboratory results published in patent publication US8791156B2, “Polyacetylene compound, an extract containing the same and application thereof” (priority 2011, dated 2014).
Read-outs that look alike come from different tables or passages of the source.

Tested on: mouse macrophage (RAW 264.7 cell)
Assay: Inhibition of NO production (nitrite by Greiss reaction) in LPS-treated mouse macrophages
Format: cell-based
Conditions: for IC50: Mus musculus
Source text: This embodiment uses an analytical method to induce the macrophage of an inflaming mouse, with combination of Greiss reaction, to measure nitrites so as to indirectly measure the output of nitrogen monoxide (NO). As NO is a significant factor in the inflaming reaction, the output of NO can be used to evaluate the degree of inflaming reaction.
In brief, culture mouse macrophage (RAW 264.7 cell) pre-cultured in a 75 cm^2 culture dish in a 96 well plate at a density of 2×10^5 cells/well. The culture solution used is DMEM with 10% FBS, 100 units/mL penicillin and 100 μg/mL streptomycin. The culturing environment is 37° C. and 5% CO2 cell incubator. Let the normally attaching cells pass or not pass the LPS (1 μg/mL) processing with addition or no addition of the compounds obtained from Embodiment II. Then, use Greiss reaction to measure the concentration of nitrites in the upper clarified liquid of the culture solution after culturing the cells.
The experimental results are shown in FIG. 3, wherein, the ability of each compound to inhibit production of NO is shown through the method of IC50. IC50 represents 50% of the inhibiting concentration, i.e., […]. From the data in the figure, it is known that the compounds obtained from Embodiment II all manifest an effect of inhibiting production of NO, i.e., an anti-inflammation effect.

[1] = RAW 264.7 cells, LPS 1 μg/mL, FIG. 3

## COc1cc(C)c(OC)c2c1OCO2 [Compound b, 1,4-dimethoxy-2,3-methylenedioxy-5-methylbenzene]
RAW264.7, RAW 264.7 cells, LPS 1 μg/mL, nitrites by Greiss reaction, FIG. 3, printed in brackets as 'about', read-out: IC50 of inhibiting production of NO (approximate range)
  IC50: 20 to 35 µg/mL
RAW264.7, RAW 264.7 cells, LPS 1 μg/mL, nitrites by Greiss reaction, FIG. 3, read-out: IC50 of inhibiting production of NO
  IC50: > 20 µg/mL

## C=C(C)C#Cc1c(OC)cc(OC)c(OC)c1C [Compound d, Antrocamphin A]
[1]
  anti-inflammation ability (inhibiting production of NO), in words: excellent anti-inflammation ability

## C=C(C)C#Cc1c(C)c2c(c(OC)c1OC)OCO2 [Compound h, Antrocamphin C]
[1]
  anti-inflammation ability (inhibiting production of NO), in words: excellent anti-inflammation ability

## C=C(CC[C@@H](C(=O)O)[C@H]1CC[C@@]2(C)C3=CC[C@H]4C(C)(C)[C@@H](O)CC[C@]4(C)C3=CC[C@]12C)C(C)C [Compound m, Dehydroeburicoic acid]
RAW264.7, read-out: IC50 of inhibiting production of NO
  IC50: > 20 µg/mL
RAW264.7, read-out: IC50 of inhibiting production of NO (approximate range)
  IC50: 20 to 35 µg/mL
